Values after ≈ are worked out from the molar mass of the structure shown.
Columns and labels:
Format in all cases: functional
Conditions in all cases: time 24-48 hrs
Clostridioides difficile [1] = assay: Antibacterial activity against multi drug resistant Clostridioides difficile assessed as bacterial growth inhibition measured at 24 to 48 hrs
Clostridioides difficile [2] = assay: Antibacterial activity against drug sensitive Clostridioides difficile assessed as bacterial growth inhibition measured at 24 to 48 hrs
Clostridioides difficile [3] = assay: Antibacterial activity against Clostridioides difficile ATCC 43255 assessed as bacterial growth inhibition measured at 24 to 48 hrs
Clostridioides difficile [4] = assay: Antibacterial activity against Clostridioides difficile assessed as bacterial growth inhibition measured at 24 to 48 hrs

SMILES	MIC (Clostridioides difficile [3]) [µg/mL]	MIC (Clostridioides difficile [4]) [µg/mL]	other results
O=[N+]([O-])c1c[nH]c(-c2nc(-c3ccc(OC4CCCC4)cc3)no2)n1	0.25 (≈ 0.732 µM)	–	MIC90 (Clostridioides difficile [1]): 1 µg/mL (≈ 2.93 µM); MIC90 (Clostridioides difficile [2]): 1 µg/mL (≈ 2.93 µM)
Cn1c(-c2nc(-c3ccc(OC4CCCC4)cc3)no2)cnc1[N+](=O)[O-]	–	32 (≈ 90.1 µM)	–
Oc1ccc(-c2nc(-c3ccc(OC4CCCC4)cc3)no2)cc1	2 (≈ 6.2 µM)	–	–
FC(F)(F)c1ccc(Oc2ccc(-c3noc(-c4ccc5[nH]ccc5c4)n3)cc2)cc1	4 (≈ 9.49 µM)	–	–
O=[N+]([O-])c1cn(CCO)c(-c2nc(-c3ccc(OC4CCCC4)cc3)no2)n1	–	> 128	–
Cc1ncc([N+](=O)[O-])n1CCO [METRONIDAZOLE]	–	0.25 (≈ 1.46 µM)	–

— ChEMBL document CHEMBL5370617, “Identification of a 1,2,4-Oxadiazole with Potent and Specific Activity against Clostridioides difficile, the Causative Bacterium of C. difficile Infection, an Urgent Public Health Threat” (2023)
